From patent publication US20120088759A1, “THIAZOLIDIN-4-ONE AND [1,3]-THIAZINAN-4-ONE COMPOUNDS AS OREXIN RECEPTOR ANTAGONISTS” (priority 2009, published 2012)

Assays:
human orexin-1 receptor = molecular target: T1, human orexin-1 receptor (Homo sapiens, UniProt O43613); experiment: FLIPR intracellular calcium assay, orexin receptor antagonistic activity (OX1); type: cell-based; settings: CHO cells expressing human orexin-1 receptor; 3 nM orexin-A; normalized to on-plate reference; *n = geometric mean from n values
T1 construct: expressed in transfected cells; host or cells: CHO (Chinese hamster ovary) cells, kept under G418
T1 sequence (O43613 1-425): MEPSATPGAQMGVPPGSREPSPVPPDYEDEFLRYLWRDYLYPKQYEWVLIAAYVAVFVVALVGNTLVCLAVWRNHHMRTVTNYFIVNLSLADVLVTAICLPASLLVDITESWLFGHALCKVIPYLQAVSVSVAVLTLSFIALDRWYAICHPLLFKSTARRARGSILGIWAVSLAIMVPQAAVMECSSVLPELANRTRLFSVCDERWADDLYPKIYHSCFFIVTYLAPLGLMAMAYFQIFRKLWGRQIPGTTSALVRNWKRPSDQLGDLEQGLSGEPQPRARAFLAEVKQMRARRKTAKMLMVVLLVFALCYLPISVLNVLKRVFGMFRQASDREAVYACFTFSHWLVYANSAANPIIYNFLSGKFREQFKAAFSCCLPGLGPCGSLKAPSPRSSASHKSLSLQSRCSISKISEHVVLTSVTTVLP
Procedure: (§1) The orexin receptor antagonistic activity of the compounds of formula (I) is determined in accordance with the following experimental method.
(§2) Chinese hamster ovary (CHO) cells expressing the human orexin-1 receptor and the human orexin-2 receptor, respectively, are grown in culture medium (Ham F-12 with L-Glutamine) containing 300 μg/ml G418, 100 U/ml penicillin, 100 μg/ml streptomycin and 10% heat inactivated fetal calf serum (FCS). The cells are seeded at 20′000 cells/well into 384-well black clear bottom sterile plates (Greiner). The seeded plates are incubated overnight at 37° C. in 5% CO2.
(§3) Human orexin-A as an agonist is prepared as 1 mM stock solution in MeOH:water (1:1), diluted in HBSS containing 0.1% bovine serum albumin (BSA), NaHCO3: 0.375 g/l and 20 mM HEPES for use in the assay at a final concentration of 3 nM.
(§4) Antagonists are prepared as 10 mM stock solution in DMSO, then diluted in 384-well plates using DMSO followed by a transfer of the dilutions into in HBSS containing 0.1% bovine serum albumin (BSA), NaHCO3: 0.375 g/l and 20 mM HEPES. On the day of the assay, 50 μl of staining buffer (HBSS containing 1% FCS, 20 mM HEPES, NaHCO3: 0.375 g/l, 5 mM probenecid (Sigma) and 3 μM of the fluorescent calcium indicator fluo-4 AM (1 mM stock solution in DMSO, containing 10% pluronic) is added to each well. The 384-well cell-plates are incubated for 50 min at 37° C. in 5% CO2 followed by equilibration at rt for 30-120 min before measurement.
(§5) Within the Fluorescent Imaging Plate Reader (FLIPR Tetra, Molecular Devices), antagonists are added to the plate in a volume of 10 μl/well, incubated for 10 min and finally 10 μl/well of agonist is added. Fluorescence is measured for each well at 1 second intervals, and the height of each fluorescence peak is compared to the height of the fluorescence peak induced by 3 nM orexin-A with vehicle in place of antagonist. For each antagonist, the IC50 value (the concentration of compound needed to inhibit 50% of the agonistic response) is determined and normalized using the obtained IC50 value of a on-plate reference compound. Optimized conditions were achieved by adjustment of pipetting speed and cell splitting regime. The calculated IC50 values of the compounds may fluctuate depending on the daily cellular assay performance. Fluctuations of this kind are known to those skilled in the art.

human orexin-2 receptor = molecular target: T2, human orexin-2 receptor (Homo sapiens, UniProt O43614); experiment: FLIPR intracellular calcium assay, orexin receptor antagonistic activity (OX2); type: cell-based; settings: CHO cells expressing human orexin-2 receptor; 3 nM orexin-A; normalized to on-plate reference; *n = geometric mean from n values
T2 construct: expressed in transfected cells; host or cells: CHO (Chinese hamster ovary) cells, kept under G418
T2 sequence (O43614 1-444): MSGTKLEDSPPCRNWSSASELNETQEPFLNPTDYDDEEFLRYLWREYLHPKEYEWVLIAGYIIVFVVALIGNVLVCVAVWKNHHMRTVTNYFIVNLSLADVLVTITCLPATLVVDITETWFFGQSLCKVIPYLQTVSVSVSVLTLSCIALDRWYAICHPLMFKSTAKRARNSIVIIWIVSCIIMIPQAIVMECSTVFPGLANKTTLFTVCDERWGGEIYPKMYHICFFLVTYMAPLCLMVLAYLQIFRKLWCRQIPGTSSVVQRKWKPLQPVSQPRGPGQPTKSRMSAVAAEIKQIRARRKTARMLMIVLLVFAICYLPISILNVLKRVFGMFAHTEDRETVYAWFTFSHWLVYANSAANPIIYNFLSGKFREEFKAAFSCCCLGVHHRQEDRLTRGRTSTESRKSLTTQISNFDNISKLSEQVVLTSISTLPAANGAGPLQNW
Procedure: as §1, §2, §3, §4, §5

Compound | IC50 (human orexin-1 receptor) [µM] | IC50 (human orexin-2 receptor) [µM]
2-[2-(2-Hydroxy-ethoxy)-6-methoxy-phenyl]-3-(4-isopropoxy-benzyl)-thiazolidin-4-on [Example 269] | 2.06 | 0.025
2-[2-(2-Hydroxy-ethoxy)-6-methoxy-phenyl]-3-(4-trifluoromethoxy-benzyl)-thiazolidin-4-one [Example 268] | 1.84 | 0.045
COc1ccc(CN2C(=O)CSC2c2c(OC)cccc2OC)cc1 (centres unmarked) [Example 1, 2-(2,6-Dimethoxy-phenyl)-3-(4-methoxy-benzyl)-thiazolidin-4-one] | 0.309 | 0.104
COc1cccc(OC)c1C1SCC(=O)N1Cc1ccc(OC(F)(F)F)cc1 (centres unmarked) [Example 2, 2-(2,6-Dimethoxy-phenyl)-3-(4-trifluoromethoxy-benzyl)-thiazolidin-4-one] | 0.144 | 0.015
COc1cccc(OC)c1C1SCC(=O)N1Cc1ccc(OC(C)(C)C)cc1 (centres unmarked) [Example 3, 3-(4-tert-Butoxy-benzyl)-2-(2,6-dimethoxy-phenyl)-thiazolidin-4-one] | 1.42 | 0.12
COc1cccc(OC)c1C1SCC(=O)N1Cc1ccc(OC(F)F)cc1 (centres unmarked) [Example 4, 3-(4-Difluoromethoxy-benzyl)-2-(2,6-dimethoxy-phenyl)-thiazolidin-4-one] | 0.377 | 0.027
COc1cccc(OC)c1C1SCC(=O)N1Cc1ccc(OC(C)C)cc1 (centres unmarked) [Example 5, 2-(2,6-Dimethoxy-phenyl)-3-(4-isopropoxy-benzyl)-thiazolidin-4-one] | 0.169 | 0.016
CCOc1ccc(CN2C(=O)CSC2c2c(OC)cccc2OC)cc1 (centres unmarked) [Example 6, 2-(2,6-Dimethoxy-phenyl)-3-(4-ethoxy-benzyl)-thiazolidin-4-one] | 0.14 | 0.024
COc1cccc(OC)c1C1SCC(=O)N1Cc1ccc(Oc2ccccc2)cc1 (centres unmarked) [Example 7, 2-(2,6-Dimethoxy-phenyl)-3-(4-phenoxy-benzyl)-thiazolidin-4-one] | 0.244 | 0.013
COc1cccc(OC)c1C1SCC(=O)N1Cc1ccc2ccccc2c1 (centres unmarked) [Example 8, 2-(2,6-Dimethoxy-phenyl)-3-naphthalen-2-ylmethyl-thiazolidin-4-one] | 0.083 | 0.023
CCOc1ccc(CN2C(=O)CSC2c2c(OC)ccc3c2OCCO3)cc1 (centres unmarked) [Example 9, 3-(4-Ethoxy-benzyl)-2-(6-methoxy-2,3-dihydro-benzo[1,4]dioxin-5-yl)-thiazolidin-4-one] | 0.326 | 0.039
COc1ccc2c(c1C1SCC(=O)N1Cc1ccc(OC(F)(F)F)cc1)OCCO2 (centres unmarked) [Example 10, 2-(6-Methoxy-2,3-dihydro-benzo[1,4]dioxin-5-yl)-3-(4-trifluoromethoxy-benzyl)-thiazolidin-4-one] | 0.144 | 0.016
CCOc1ccc(CN2C(=O)CSC2c2c(OC)ccc3c2OCO3)cc1 (centres unmarked) [Example 11, 3-(4-Ethoxy-benzyl)-2-(5-methoxy-benzo[1,3]dioxol-4-yl)-thiazolidin-4-one] | 0.885 | 0.046
COc1ccc2c(c1C1SCC(=O)N1Cc1ccc(OC(F)(F)F)cc1)OCO2 (centres unmarked) [Example 12, 2-(5-Methoxy-benzo[1,3]dioxol-4-yl)-3-(4-trifluoromethoxy-benzyl)-thiazolidin-4-one] | 0.31 | 0.011
CCOc1ccc(CN2C(=O)C(C)SC2c2c(OC)cccc2OC)cc1 (centres unmarked) [Example 13, 2-(2,6-Dimethoxy-phenyl)-3-(4-ethoxy-benzyl)-5-methyl-thiazolidin-4-one] | 0.244 | 0.043
COc1cccc(OC)c1C1SC(C)C(=O)N1Cc1ccc2ccccc2c1 (centres unmarked) [Example 14, 2-(2,6-Dimethoxy-phenyl)-5-methyl-3-naphthalen-2-ylmethyl-thiazolidin-4-one] | 0.031 | 0.044
CCOc1ccc(CN2C(=O)CSC2c2c(OC)cccc2OCC)cc1 (centres unmarked) [Example 15, 3-(4-Ethoxy-benzyl)-2-(2-ethoxy-6-methoxy-phenyl)-thiazolidin-4-one] | 0.853 | 0.048
CCOc1cccc(OC)c1C1SCC(=O)N1Cc1ccc(OC(F)(F)F)cc1 (centres unmarked) [Example 16, 2-(2-Ethoxy-6-methoxy-phenyl)-3-(4-trifluoromethoxy-benzyl)-thiazolidin-4-one] | 0.454 | 0.024
COc1cccc(OC)c1C1SC(C)C(=O)N1Cc1ccc(OC(F)(F)F)cc1 (centres unmarked) [Example 17, 2-(2,6-Dimethoxy-phenyl)-5-methyl-3-(4-trifluoromethoxy-benzyl)-thiazolidin-4-one] | 0.363 | 0.015
COc1cccc(OC)c1C1SCC(=O)N1Cc1ccc(OCC(F)(F)F)cc1 (centres unmarked) [Example 18, 2-(2,6-Dimethoxy-phenyl)-3-[4-(2,2,2-trifluoro-ethoxy)-benzyl]-thiazolidin-4-one] | 0.323 | 0.01
CCOc1ccc(CN2C(=O)CSC2c2c(OC)ccc3c(C)noc23)cc1 (centres unmarked) [Example 19, 3-(4-Ethoxy-benzyl)-2-(6-methoxy-3-methyl-benzo[d]isoxazol-7-yl)-thiazolidin-4-one] | 8.12 | 0.153
CCOc1ccc(CN2C(=O)CSC2c2c(OC)ccc3nc(C)oc23)cc1 (centres unmarked) [Example 20, 3-(4-Ethoxy-benzyl)-2-(6-methoxy-2-methyl-benzooxazol-7-yl)-thiazolidin-4-one] | 1.56 | 0.342
CCOc1ccc(CN2C(=O)CSC2c2c(OC)ccc3cccnc23)cc1 (centres unmarked) [Example 21, 3-(4-Ethoxy-benzyl)-2-(7-methoxy-quinolin-8-yl)-thiazolidin-4-one] | 1.45 | 0.06
COc1ccc2c(C)noc2c1C1SCC(=O)N1Cc1ccc(OC(F)(F)F)cc1 (centres unmarked) [Example 22, 2-(6-Methoxy-3-methyl-benzo[d]isoxazol-7-yl)-3-(4-trifluoromethoxy-benzyl)-thiazolidin-4-one] | 2.36 | 0.019
COc1ccc2nc(C)oc2c1C1SCC(=O)N1Cc1ccc(OC(F)(F)F)cc1 (centres unmarked) [Example 23, 2-(6-Methoxy-2-methyl-benzooxazol-7-yl)-3-(4-trifluoromethoxy-benzyl)-thiazolidin-4-one] | 0.204 | 0.028
COc1ccc2cccnc2c1C1SCC(=O)N1Cc1ccc(OC(F)(F)F)cc1 (centres unmarked) [Example 24, 2-(7-Methoxy-quinolin-8-yl)-3-(4-trifluoromethoxy-benzyl)-thiazolidin-4-one] | 0.278 | 0.014
COc1ccnc(OC)c1C1SCC(=O)N1Cc1ccc(OC(F)(F)F)cc1 (centres unmarked) [Example 25, 2-(2,4-Dimethoxy-pyridin-3-yl)-3-(4-trifluoromethoxy-benzyl)-thiazolidin-4-one] | 0.561 | 0.016
CCOc1ccc(CN2C(=O)CSC2c2c(OC)ccnc2OC)cc1 (centres unmarked) [Example 26, 2-(2,4-Dimethoxy-pyridin-3-yl)-3-(4-ethoxy-benzyl)-thiazolidin-4-one] | 4.3 | 0.126
